Measured values from US9217014B2, “Antifungal agents and uses thereof” (Cidara Therapeutics, Inc., priority 2011, dated 2015).

Assays:
Aspergillus spp. = assay: MEC and MIC values versus Aspergillus spp.; assay type: cell-based; details: 48 h; presence and absence of 50% human serum
Experimental: MEC and MIC values (μg/mL) of anidulafungin, caspofungin, amphotericin B, compound 1, and compound 16 against various Aspergillus species in the presence and absence of 50% human serum were obtained as follows.
Test organisms were obtained from the American Type Culture Collection (Manassas, Va.). The isolates were maintained at −80° C., then thawed and sub-cultured prior to testing. […]
Standardized inoculum of Aspergillus was prepared per CLSI methods. […] After a short time to allow the heavy particles to settle out, a small quantity of the supernatant was dispensed into RPMI and the suspension adjusted to equal 0.5 McFarland turbidity. […]
Plates were covered with a lid, placed in plastic bags, and incubated at 35° C. The Aspergillus plates were incubated for 48 h before reading. […]
Both an MIC and Minimal Effective Concentration (MEC) value was recorded. […]

[1] = Solubility in aqueous buffers of varying pH; assay type: physicochemical; details: for solubility: ambient temperature, compound 1 as acetate salt
Experimental: The solubility of compound 1 (acetate salt) was measured in aqueous buffers of varying pH to assess this compound's suitability for formulation in an aqueous carrier for administration by injection (e.g., intravenous or intramuscular injection).

[2] = Solubility in non-aqueous solvents; assay type: physicochemical; details: organic solvent or mixture, compound 1 as acetate salt
Experimental: The solubility of compound 1 (acetate salt) was also measured in non-aqueous solvents to assess this compound's suitability for formulation in non-aqueous carriers.

Row | SMILES | activity against Aspergillus strains relative to anidulafungin (MEC and MIC) (Aspergillus spp.) | solubility ([1]; aqueous buffer, pH 3 (0.01M formate buffer)) | solubility ([1]; aqueous buffer, pH 4.6 (0.1M acetate buffer)) | solubility ([1]; aqueous buffer, pH 5.6 (0.1M acetate buffer)) | solubility ([1]; aqueous buffer, pH 7.4 (0.1M phosphate buffer)) | solubility ([1]; aqueous buffer, pH 8.5 (0.01M TRIS buffer)) | aqueous solubility compared with anidulafungin (in words) ([1]; over a broad pH range) | solubility ([1]; saline or isotonic, 0.9% saline) | solubility ([1]; simulated gastric fluid, pH 1 (0.1M HCl)) | solubility ([2]; Ethanol (EtOH)) | solubility ([2]; Glycerol) | solubility ([2]; PEG400) | solubility ([2]; Propylene glycol(PG))
1 | CCCCCOc1ccc(-c2ccc(-c3ccc(C(=O)N[C@H]4C[C@@H](O)C(OCC[N+](C)(C)C)NC(=O)C5[C@@H](O)[C@@H](C)CN5C(=O)C([C@@H](C)O)NC(=O)C([C@H](O)[C@@H](O)c5ccc(O)cc5)NC(=O)C5C[C@@H](O)CN5C(=O)C([C@@H](C)O)NC4=O)cc3)cc2)cc1 (some centres unmarked) [compound 1] | retain their activity | > 15 mg/mL | > 15 mg/mL | > 15 mg/mL | 0.05 mg/mL | > 15 mg/mL | dramatically greater aqueous solubility than anidulafungin | 4.6 mg/mL | > 15 mg/mL | > 13.7 mg/mL | > 19.4 mg/mL | > 34.1 mg/mL | > 18.4 mg/mL
2 | CCCCCOc1ccc(-c2ccc(-c3ccc(C(=O)N[C@H]4C[C@@H](O)C(NCC[N+](C)(C)C)NC(=O)C5[C@@H](O)[C@@H](C)CN5C(=O)C([C@@H](C)O)NC(=O)C([C@H](O)[C@@H](O)c5ccc(O)cc5)NC(=O)C5C[C@@H](O)CC5C(=O)C([C@@H](C)O)NC4=O)cc3)cc2)cc1 (some centres unmarked) [compound 16] | retain their activity |  |  |  |  |  |  |  |  |  |  |  | 
